In ChEMBL document CHEMBL3997812, “The induction of oxidative stress in cervix carcinoma cells by levoglucosenone derived 4-S-salicyl derivative and (1-4)-S-thio-disaccharides. Part 4” (2017):
Active and inactive are the calls of the source. The calls are words filed in the database; no cut-off is given here.

Experiments:
HeLa [1] = assay: Effect on NQO1 mRNA expression in human HeLa cells after 4 hrs by RT-PCR method relative to control; format: functional
HeLa [2] = assay: Geno-toxicity in human HeLa cells assessed as induction of DNA damage by measuring increase in incomplete excision repair sites at pH 12.1 after 1 hr by comet assay; format: functional, cell-based
Escherichia coli [3] = assay: Induction of Escherichia coli pUC19 DNA damage assessed as increase in open circular DNA forms after 1 hr by agarose gel electrophoresis
HeLa [4] = assay: Upregulation of GPX1 mRNA expression in human HeLa cells after 4 hrs by RT-PCR method; format: functional, cell-based
HeLa [5] = assay: Effect on SOD1 mRNA expression in human HeLa cells after 4 hrs by RT-PCR method relative to control; format: functional
HeLa [6] = assay: Induction of DNA damage in human HeLa cells incubated for 1 hr followed by repair incubation for 120 mins by alkaline comet assay; format: functional, cell-based
HeLa [7] = assay: Effect on GCLM mRNA expression in human HeLa cells after 4 hrs by RT-PCR method relative to control; format: functional
HeLa [8] = assay: Upregulation of CAT mRNA expression in human HeLa cells after 4 hrs by RT-PCR method; format: functional, cell-based
HeLa [9] = assay: Geno-toxicity in human HeLa cells assessed as induction of DNA damage by measuring increase in double stranded DNA breaks at 69 to 550 uM after 1 hr by neutral comet assay; format: functional, cell-based
HeLa [10] = assay: Induction of oxidative stress in human HeLa cells assessed as reduction in GSH level after 1 hr by MBCL probe based flow cytometry relative to control; format: functional
HeLa [11] = assay: Geno-toxicity in human HeLa cells assessed as induction of DNA damage by measuring increase in single strand breaks after 1 hr by comet assay; format: functional, cell-based
HeLa [12] = assay: Geno-toxicity in human HeLa cells assessed as induction of DNA damage after 1 hr by alkaline comet assay; format: functional, cell-based
HeLa [13] = assay: Induction of DNA damage in human HeLa cells assessed as increase in DNA lessions at 37 degreeC incubation for 120 mins by alkaline comet assay relative to control; format: functional, cell-based
HeLa [14] = assay: Effect on HMOX mRNA expression in human HeLa cells after 4 hrs by RT-PCR method relative to control; format: functional
HeLa [15] = assay: Induction of DNA damage in human HeLa cells after 1 hr in presence of antioxidant epicatechin by alkaline comet assay relative to control; format: functional, cell-based
HeLa [16] = assay: Induction of DNA damage in human HeLa cells assessed as increase in DNA lessions at 4 degreeC incubation for 120 mins by alkaline comet assay relative to control; format: functional, cell-based
HeLa [17] = assay: Effect on GPX4 mRNA expression in human HeLa cells after 4 hrs by RT-PCR method relative to control; format: functional
Escherichia coli [18] = assay: Induction of Escherichia coli pUC19 DNA damage assessed as decrease in supercoiled covalently closed circular DNA forms after 1 hr by agarose gel electrophoresis
HeLa [19] = assay: Induction of ROS production in human HeLa cells after 1 hr by CM-H2DCFDA probe based fluorescence assay; format: functional, cell-based
HeLa [20] = assay: Induction of nitric oxide production in human HeLa cells after 1 hr by DAF2-DA probe based fluorescence assay; format: functional, cell-based
Escherichia coli [21] = assay: Induction of Escherichia coli pUC19 DNA damage assessed as increase in linear DNA forms after 1 hr by agarose gel electrophoresis
HeLa [22] = assay: Effect on NOX5 mRNA expression in human HeLa cells after 4 hrs by RT-PCR method relative to control; format: functional
HeLa [23] = assay: Induction of DNA damage in human HeLa cells after 1 hr in presence of antioxidant vitamin E by alkaline comet assay relative to control; format: functional, cell-based
HeLa [24] = assay: Effect on SOD2 mRNA expression in human HeLa cells after 4 hrs by RT-PCR method relative to control; format: functional
HeLa [25] = assay: Induction of oxidative stress in human HeLa cells assessed as reduction in thioredoxin reductase at IC50 after 14 hrs by DTNB/bradford reagent based colorimetric method; format: functional; set-up: scale not given: the % may be the effect or the level left
HeLa [26] = assay: Effect on NOX4 mRNA expression in human HeLa cells after 4 hrs by RT-PCR method relative to control; format: functional
HeLa [27] = assay: Effect on NCOA7 mRNA expression in human HeLa cells after 4 hrs by RT-PCR method relative to control; format: functional
HeLa [28] = assay: Effect on TXN mRNA expression in human HeLa cells after 4 hrs by RT-PCR method relative to control; format: functional
HeLa [29] = assay: Geno-toxicity in human HeLa cells assessed as induction of DNA damage by measuring increase in double stranded DNA breaks at 17 to 137 uM after 1 hr by neutral comet assay; format: functional, cell-based
HeLa [30] = assay: Geno-toxicity in human HeLa cells assessed as induction of DNA damage by measuring increase in double stranded DNA breaks at 5.6 to 69 uM after 1 hr by neutral comet assay; format: functional, cell-based

Row | Compound | fold change (FC) (HeLa [1]) | Activity (HeLa [2]) | Activity (Escherichia coli [3]) | Activity (HeLa [4]) | fold change (FC) (HeLa [5]) | Activity (HeLa [6]) | fold change (FC) (HeLa [7]) | Activity (HeLa [8]) | Activity (HeLa [10]) | Activity (HeLa [11]) | Activity (HeLa [12]) | Activity (HeLa [13]) | fold change (FC) (HeLa [14]) | Activity (HeLa [15]) | Activity (HeLa [16]) | fold change (FC) (HeLa [17]) | Activity (Escherichia coli [18]) | Activity (HeLa [19]) | Activity (HeLa [20]) | Activity (Escherichia coli [21]) | further results
1 | O=C1C[C@@H](S[C@@H]2O[C@H](CO)[C@@H](O)[C@H](O)[C@H]2O)[C@H]2CO[C@@H]1O2 | 1.27 | Dose-dependent effect | inactive | Active | 1.16 | inactive | 1.95 | Active | Active | Dose-dependent effect | Dose-dependent effect | Active | 7.29 | inactive | inactive | 0.56 | inactive | Active | inactive | inactive | Activity (HeLa [9]): inactive; fold change (FC) (HeLa [22]): 0.34; Activity (HeLa [23]): inactive; fold change (FC) (HeLa [24]): 1.25; Activity (HeLa [25]): 3.86%; fold change (FC) (HeLa [26]): 0.68; fold change (FC) (HeLa [27]): 0.35; fold change (FC) (HeLa [28]): 0.94
2 | O=C(O)c1ccccc1S[C@@H]1CC(=O)[C@@H]2OC[C@H]1O2 | 1.61 | Dose-dependent effect | inactive | Active | 1.12 | inactive | 1.56 | Active | Active | Dose-dependent effect | Dose-dependent effect | Active | 3.42 | inactive | inactive | 0.56 | inactive | Active | inactive | inactive | Activity (HeLa [29]): inactive; fold change (FC) (HeLa [22]): 0.56; Activity (HeLa [23]): inactive; fold change (FC) (HeLa [24]): 1.28; Activity (HeLa [25]): 7.5%; fold change (FC) (HeLa [26]): 1.13; fold change (FC) (HeLa [27]): 0.51; fold change (FC) (HeLa [28]): 0.93
3 | CC(=O)OC[C@H]1O[C@@H](S[C@@H]2CC(=O)[C@@H]3OC[C@H]2O3)[C@H](OC(C)=O)[C@@H](OC(C)=O)[C@@H]1OC(C)=O | 1.34 | Dose-dependent effect | inactive | Active | 1.18 | inactive | 2.21 | Active | 20% | Dose-dependent effect | Dose-dependent effect | Active | 20.29 | inactive | inactive | 1.15 | inactive | Active | inactive | inactive | Activity (HeLa [30]): inactive; fold change (FC) (HeLa [22]): 0.53; Activity (HeLa [23]): inactive; fold change (FC) (HeLa [24]): 1.56; Activity (HeLa [25]): 18.3%; fold change (FC) (HeLa [26]): 0.58; fold change (FC) (HeLa [27]): 0.43; fold change (FC) (HeLa [28]): 0.76
4 | CC(=O)OC[C@H]1O[C@@H](S[C@@H]2CC(=O)[C@@H]3OC[C@H]2O3)[C@H](OC(C)=O)[C@@H](OC(C)=O)[C@H]1OC(C)=O | 1.36 | Dose-dependent effect | inactive | Active | 1.07 | inactive | 1.77 | Active | 60% | Dose-dependent effect | Dose-dependent effect | Active | 10.53 | inactive | inactive | 0.75 | inactive | Active | inactive | inactive | Activity (HeLa [9]): inactive; fold change (FC) (HeLa [22]): 0.68; Activity (HeLa [23]): inactive; fold change (FC) (HeLa [24]): 1.26; Activity (HeLa [25]): 9.2%; fold change (FC) (HeLa [26]): 0.74; fold change (FC) (HeLa [27]): 0.37; fold change (FC) (HeLa [28]): 1.07
